These are literature values, as cited in patent US20030113270A1, “Vasoactive intestinal peptides for glaucomatous retinopathy” (priority 2001, published 2003).

Where no end group is shown, it is not given here.

This data set deals with neuronal survival.

As for “vasoactive intestinal polypeptide (HSDAVFTDNYTRLRKQMAVKKYLNSILN; ends and bridges not checked; UniProt P01282 125-152, looked up) [VIP, 28 amino acid neuropeptide]”, the neuroprotection entry (Alzheimer's disease-relevant models) is listed as “provide neuroprotection”.

As to Stearyl-norleucine^17-VIP [SNV], the “potency in promoting neuronal survival relative to VIP” value (more potent than VIP) is recorded as 100 fold.
